From ChEMBL document CHEMBL1201862, “PubChem BioAssay data set” (2004) come the findings set out here.

Each structure is given as a SMILES string.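 In this assay, cells in 96-well plates receive the compound at five concentrations for 48 hours. Endpoints are linearly interpolated between the surrounding concentrations. At the GI50, growth is halved.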 Calls of active or inactive are those of the source. Cut-off read from the data, not from the text of the source: active = GI50 up to about 1.1 µM and inactive = higher.

Test systems include RXF 393; MOLT-4; OVCAR-4; U-251; M14; HCT-15; Malme-3M; NCI-H460; EKVX; HL-60; NCI-H23; SF-539; SK-MEL-5; OVCAR-5; HCT-116; K562; OVCAR-3; A549; SF-295; TK-10.
Common to all, as to test: NCI anticancer screen, dose series, 48 h

In the case of `N#CCCC1C(C#N)C2(Cl)CC1(Cl)C(Cl)=C2Cl` (stereo unspecified), the GI50 with RXF 393 was > 10 µM (inactive); with MOLT-4 it was > 10 µM (inactive); in the assay with OVCAR-4, > 10 µM (inactive); in the assay on U-251, > 10 µM (inactive); with M14, > 10 µM (inactive); with HCT-15, > 10 µM. Moreover, the GI50 in the assay on Malme-3M, with NCI-H460, in the assay on EKVX, with HL-60, with NCI-H23 and with SF-539 was > 10 µM (inactive) throughout. The GI50 in the assay on SK-MEL-5, in the assay on OVCAR-5, with HCT-116, in the assay on K562, in the assay with OVCAR-3 and in the assay on A549 was > 10 µM (inactive) in each case. Besides, the GI50 in the assay with SF-295 and in the assay on TK-10 was > 10 µM (inactive) each time.
As to `CCCCOC(=O)CN1C(=O)c2ccccc2C1=O`, the GI50 is > 100 µM (inactive) with RXF 393; > 100 µM (inactive) with MOLT-4; > 100 µM (inactive) with OVCAR-4; > 100 µM (inactive) in the assay with U-251; > 100 µM (inactive) in the assay on M14; > 100 µM with HCT-15. Besides, the GI50 in the assay with Malme-3M, in the assay with NCI-H460, in the assay on EKVX, with HL-60, with NCI-H23 and with SF-539 was > 100 µM (inactive) each time. Also, the GI50 in the assay on SK-MEL-5, with OVCAR-5, in the assay with HCT-116, in the assay on OVCAR-3, in the assay with A549 and in the assay with SF-295 was > 100 µM (inactive) each time. Moreover, the GI50 with TK-10 is > 100 µM (inactive).
For the compound `CCC1=NC(C(F)(F)F)(C(F)(F)F)N=C(N2CCOCC2)O1`, the GI50 in the assay on RXF 393 is > 100 µM (inactive); in the assay on MOLT-4, > 100 µM (inactive); in the assay with OVCAR-4, > 100 µM (inactive); in the assay on U-251, > 100 µM (inactive); with M14, > 100 µM (inactive); in the assay with HCT-15 it was > 100 µM. In addition, the GI50 in the assay on NCI-H460, in the assay with EKVX, in the assay with HL-60, with NCI-H23, in the assay with SF-539 and in the assay with SK-MEL-5 was > 100 µM (inactive) throughout. Besides, the GI50 with OVCAR-5, with HCT-116, in the assay on K562, in the assay on OVCAR-3, with A549 and with SF-295 was > 100 µM (inactive) throughout. In addition, the GI50 with TK-10 was > 100 µM (inactive).
On to `CC1(C)CCc2cc3c(-c4ccccc4)cc(=O)oc3cc2O1`, for which the GI50 in the assay with MOLT-4 is > 100 µM (inactive); with U-251 it was > 100 µM (inactive); in the assay on M14, > 100 µM (inactive); in the assay with HCT-15 it was > 100 µM; in the assay with Malme-3M, > 100 µM (inactive); with NCI-H460, > 100 µM (inactive). Moreover, the GI50 in the assay with EKVX was > 100 µM (inactive); in the assay with HL-60, > 100 µM (inactive); in the assay on NCI-H23 it was > 100 µM (inactive); in the assay with SF-539, 38.5 µM (inactive); with SK-MEL-5 it was > 100 µM (inactive); in the assay with K562 it was > 100 µM (inactive). Also, the GI50 was > 100 µM (inactive) in the assay on OVCAR-3, 48.3 µM (inactive) in the assay on SF-295 and > 100 µM (inactive) in the assay on TK-10.
With `CCOC(=O)c1csc(NC(=O)CN(C)C)n1`, the GI50 is > 100 µM (inactive) with RXF 393; > 100 µM (inactive) with MOLT-4; > 100 µM (inactive) with OVCAR-4; > 100 µM (inactive) with U-251; > 100 µM (inactive) in the assay with M14; > 100 µM in the assay with HCT-15. For the same compound, the GI50 in the assay with NCI-H460, in the assay with EKVX, in the assay with HL-60, in the assay with NCI-H23, with SF-539 and with SK-MEL-5 was > 100 µM (inactive) each time. For the same compound, the GI50 in the assay with OVCAR-5, with K562, in the assay on OVCAR-3, in the assay on A549, with SF-295 and in the assay on TK-10 was > 100 µM (inactive) each time.
As to `O=c1n(CC2CO2)c2ccccc2n1CC1CS1` (stereo unspecified), the GI50 was 57 µM (inactive) in the assay on RXF 393; 73.3 µM (inactive) with MOLT-4; > 100 µM (inactive) in the assay with OVCAR-4; > 100 µM (inactive) in the assay on M14; > 100 µM in the assay with HCT-15; > 100 µM (inactive) in the assay on Malme-3M. Further, the GI50 in the assay on NCI-H460 is > 100 µM (inactive); in the assay with EKVX, > 100 µM (inactive); with HL-60 it was 11.1 µM (inactive); in the assay with SF-539, > 100 µM (inactive); with OVCAR-5 it was > 100 µM (inactive); with HCT-116, 67.3 µM (inactive). Further, the GI50 with K562 is > 100 µM (inactive); in the assay on OVCAR-3, 78.7 µM (inactive); in the assay on A549, > 100 µM (inactive); in the assay with SF-295 it was > 100 µM (inactive); in the assay with TK-10, > 100 µM (inactive).
In the case of `Cc1ccc(Cl)cc1/N=N/C(=O)NNc1cc(Cl)ccc1C`, the GI50 is 21 µM (inactive) in the assay with RXF 393; 13.9 µM (inactive) with MOLT-4; 19.7 µM (inactive) with U-251; 14.5 µM (inactive) in the assay on M14; 17.1 µM in the assay on HCT-15; 24 µM (inactive) with Malme-3M. Further, the GI50 in the assay on NCI-H460 is 18 µM (inactive); with HL-60, 58.9 µM (inactive); with NCI-H23 it was 19.4 µM (inactive); in the assay on SK-MEL-5, 14.2 µM (inactive); in the assay with OVCAR-5, 15.8 µM (inactive); in the assay with HCT-116 it was 25.4 µM (inactive). Moreover, the GI50 is 24.2 µM (inactive) with K562, 14.7 µM (inactive) in the assay with OVCAR-3 and 19.4 µM (inactive) in the assay on SF-295.
For the compound `O=c1c2ccccc2[nH]c2cc(O)cc(O)c12`, the GI50 is > 100 µM (inactive) in the assay with RXF 393; 34.2 µM (inactive) in the assay with MOLT-4; > 100 µM (inactive) in the assay on OVCAR-4; 79.3 µM (inactive) with U-251; 91 µM (inactive) in the assay with M14; 55.6 µM with HCT-15. Moreover, the GI50 in the assay on Malme-3M was 56.8 µM (inactive); in the assay with NCI-H460 it was 32.8 µM (inactive); in the assay on HL-60 it was > 100 µM (inactive); with NCI-H23, 22.9 µM (inactive); with SF-539, 41.5 µM (inactive); with SK-MEL-5, 19.1 µM (inactive). For the same compound, the GI50 was 55.6 µM (inactive) in the assay on HCT-116; 66.4 µM (inactive) with K562; 53.1 µM (inactive) with OVCAR-3; 92.5 µM (inactive) in the assay with A549; 42.9 µM (inactive) in the assay with SF-295; > 100 µM (inactive) in the assay on TK-10.
